pKi: −log10 of the molar value.
Experiments:
[1] = target: T1, D(3) dopamine receptor (Homo sapiens, UniProt P35462)
Description: Tested for the ability to displace [125I]iodosulpiride from human cloned Dopamine receptor D3, expressed in CHO cells

[2] = target: T2, D(2) dopamine receptor (Homo sapiens, UniProt P14416); experiment: Tested for the ability to displace [125I]iodosulpiride from human cloned Dopamine receptor D2, expressed in CHO cells.; type: cell-based
[3] = target: T1, D(3) dopamine receptor; experiment: Functional activity in vitro using microphysiometry at Dopamine receptor D3; Agonist; settings: filed as agonist
[4] = target: T1, D(3) dopamine receptor; experiment: Tested for the functional activity in vitro using microphysiometry at Dopamine receptor D3; antagonist; settings: filed as antagonist
[5] = target: T2, D(2) dopamine receptor; experiment: Displacement of [125I]iodosulpiride from human Dopamine receptor D2 expressed in CHO cells; type: cell-based

T1 sequence (P35462 whole entry): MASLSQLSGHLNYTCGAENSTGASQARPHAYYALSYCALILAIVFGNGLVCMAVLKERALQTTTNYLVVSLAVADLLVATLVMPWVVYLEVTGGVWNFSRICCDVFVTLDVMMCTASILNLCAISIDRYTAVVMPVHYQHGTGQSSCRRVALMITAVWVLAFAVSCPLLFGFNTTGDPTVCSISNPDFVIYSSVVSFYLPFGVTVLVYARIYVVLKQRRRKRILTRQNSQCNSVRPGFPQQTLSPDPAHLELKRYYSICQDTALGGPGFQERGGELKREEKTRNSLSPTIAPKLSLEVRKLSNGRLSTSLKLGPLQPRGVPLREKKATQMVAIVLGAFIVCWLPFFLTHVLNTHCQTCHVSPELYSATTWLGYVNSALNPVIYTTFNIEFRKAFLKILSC
T2 sequence (P14416 whole entry): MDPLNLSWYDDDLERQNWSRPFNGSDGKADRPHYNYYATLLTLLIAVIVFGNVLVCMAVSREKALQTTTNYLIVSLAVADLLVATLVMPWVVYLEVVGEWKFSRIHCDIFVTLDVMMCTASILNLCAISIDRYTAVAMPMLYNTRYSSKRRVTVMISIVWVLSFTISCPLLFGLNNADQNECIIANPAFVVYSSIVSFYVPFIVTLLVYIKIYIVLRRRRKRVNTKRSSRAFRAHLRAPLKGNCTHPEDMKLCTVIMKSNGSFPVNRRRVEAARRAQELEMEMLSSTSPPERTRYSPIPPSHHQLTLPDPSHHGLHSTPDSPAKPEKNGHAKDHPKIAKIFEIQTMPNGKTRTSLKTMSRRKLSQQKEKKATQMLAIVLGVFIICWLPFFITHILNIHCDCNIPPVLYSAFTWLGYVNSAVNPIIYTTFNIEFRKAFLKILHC

SMILES	pKi [1]	pKi [2]	Function [3]	Function [4]	pKi [5]
CCCN(CCCCNC(=O)c1ccc(-c2ccccc2)cc1)C1CCc2nc(NC)ncc2C1 (stereo not given)	7.80	5.60	Agonist	–	–
CCCN(CCCCNC(=O)c1ccc(-c2ccccc2)cc1)C1CCc2n[nH]cc2C1 (stereo not given)	8.50	6.30	Agonist	–	–
CCCN(CCCCNC(=O)c1ccc(-c2ccccc2)cc1)C1CCc2nc(N)sc2C1 (stereo not given)	9.30	6.70	Agonist	–	–
CCCN(CCCCNC(=O)c1ccc(-c2ccccc2)cc1)C1CCc2ncncc2C1 (stereo not given)	6.90	5.90	–	–	–
CCCN(CCCCNC(=O)c1ccc(-c2ccccc2)cc1)C1CCc2nc(C(C)(C)C)ncc2C1 (stereo not given)	7.90	5.80	–	Antagonist	–
CCCNC1CCc2nc(N)sc2C1 (stereo not given)	8.00	–	–	–	–
CCCN1COC[C@@H]2c3cc(O)ccc3OC[C@H]21	7.60	–	–	–	5.60
CCCN(CCCCNC(=O)c1ccc(-c2ccccc2)cc1)C1CCc2ncnc(OC)c2C1 (stereo not given)	8.50	5.80	Agonist	–	–

Now from value to molecule, other results behind:

pKi [1]	pKi [2]	Function [3]	Function [4]	SMILES	pKi [5]
7.60	5.80	–	Antagonist	CCCN(CCCCNC(=O)c1ccc(-c2ccccc2)cc1)C1CCc2nc(N(C)C)ncc2C1 (stereo not given)	–
9.10	6.80	Agonist	–	CCCN(CCCCNC(=O)c1ccc(-c2ccccc2)cc1)C1CCc2nc(N)ncc2C1 (stereo not given)	–
7.80	5.90	–	Antagonist	CCCN(CCCCNC(=O)c1ccc(-c2ccccc2)cc1)C1CCc2nc(SC)ncc2C1 (stereo not given)	–
8.10	5.60	Agonist	–	CCCN(CCCCNC(=O)c1ccc(-c2ccccc2)cc1)C1CCc2nc(C)ncc2C1 (stereo not given)	–
8.00	5.80	Agonist	–	CN(CCCCNC(=O)c1ccc(-c2ccccc2)cc1)C1CCc2nc(N)ncc2C1 (stereo not given)	–

From ChEMBL document CHEMBL1131981, “Heterocyclic analogues of 2-aminotetralins with high affinity and selectivity for the dopamine D3 receptor” (Bioorg Med Chem Lett, 1999)
